Key:
U-937 = test: Antiproliferative activity against human U937 cells assessed as cell viability after 72 hrs by CCK8 assay; assay type: functional, cell-based
[1] = Antiproliferative activity against human MOLT4 cells assessed as cell viability after 72 hrs by CCK8 assay; assay type: functional, cell-based, MOLT-4
MCF7 = test: Antiproliferative activity against human MCF7 cells assessed as cell viability after 72 hrs by CCK8 assay; assay type: functional, cell-based
MDA-MB-231 = test: Antiproliferative activity against human MDA-MB-231 cells assessed as cell viability after 72 hrs by CCK8 assay; assay type: functional, cell-based
[2] = Antiproliferative activity against human SKBR3 cells assessed as cell viability after 72 hrs by CCK8 assay; assay type: functional, cell-based, SK-BR-3
A549 = test: Antiproliferative activity against human A549 cells assessed as cell viability after 72 hrs by CCK8 assay; assay type: functional, cell-based; details: A549, 72 h
A-431 = test: Antiproliferative activity against human A431 cells assessed as cell viability after 72 hrs by CCK8 assay; assay type: functional, cell-based
DU-145 = test: Antiproliferative activity against human DU145 cells assessed as cell viability after 72 hrs by CCK8 assay; assay type: functional, cell-based
PC-3 = test: Antiproliferative activity against human PC3 cells assessed as cell viability after 72 hrs by CCK8 assay; assay type: functional, cell-based
HeLa = test: Antiproliferative activity against human HeLa cells assessed as cell viability after 72 hrs by CCK8 assay; assay type: functional, cell-based
NCI-N87 = test: Antiproliferative activity against human NCI-N87 cells assessed as cell viability after 72 hrs by CCK8 assay; assay type: functional, cell-based
HCT-116 = test: Antiproliferative activity against human HCT116 cells assessed as cell viability after 72 hrs by CCK8 assay; assay type: functional, cell-based
[3] = Antiproliferative activity against human PANC1 cells assessed as cell viability after 72 hrs by CCK8 assay; assay type: functional, cell-based; details: PANC-1, 72 h
Aurora kinase A = molecular target: T1, Aurora kinase A (Homo sapiens, UniProt O14965); test: Inhibition of Aurora A (unknown origin) using FAM-labeled peptide as substrate preincubated for 10 mins followed by substrate addition measured after 60 mins
T1 sequence (O14965 whole entry): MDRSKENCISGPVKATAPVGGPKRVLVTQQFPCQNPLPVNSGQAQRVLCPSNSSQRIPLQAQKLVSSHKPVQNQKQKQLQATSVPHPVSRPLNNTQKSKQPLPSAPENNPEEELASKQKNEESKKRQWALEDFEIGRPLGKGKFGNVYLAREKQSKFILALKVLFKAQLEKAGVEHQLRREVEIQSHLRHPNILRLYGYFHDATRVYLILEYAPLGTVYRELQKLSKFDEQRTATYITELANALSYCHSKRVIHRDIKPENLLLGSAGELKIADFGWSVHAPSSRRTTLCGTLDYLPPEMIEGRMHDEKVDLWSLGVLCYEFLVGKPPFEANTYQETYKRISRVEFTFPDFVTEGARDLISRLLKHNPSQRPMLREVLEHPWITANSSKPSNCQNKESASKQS

HL-60 = test: Antiproliferative activity against human HL60 cells assessed as cell viability after 72 hrs by CCK8 assay; assay type: functional, cell-based
K562 = test: Antiproliferative activity against human K562 cells assessed as cell viability after 72 hrs by CCK8 assay; assay type: functional, cell-based
[4] = Cell cycle arrest in human CNE2 cells assessed as accumulation at G1 phase at 1 uM after 24 hrs by propidium iodide staining-based flow cytometric analysis (reference value: 52.5%); assay type: functional; details: CNE-2
[5] = Cell cycle arrest in human CNE2 cells assessed as accumulation at S phase at 1 uM after 24 hrs by propidium iodide staining-based flow cytometric analysis (reference value: 14.7%); assay type: functional; details: CNE-2
[6] = Cell cycle arrest in human CNE2 cells assessed as accumulation at G2/M phase at 1 uM after 24 hrs by propidium iodide staining-based flow cytometric analysis (reference value: 38.2%); assay type: functional; details: CNE-2
[7] = Cell cycle arrest in human CNE2 cells assessed as accumulation at polyploid period at 1 uM after 24 hrs by propidium iodide staining-based flow cytometric analysis (reference value: […]); assay type: functional; details: CNE-2
[8] = Homo sapiens, U-937, 72 h, read-out: IC50
[9] = Homo sapiens, MOLT-4, 72 h, read-out: IC50
[10] = Homo sapiens, MCF7, 72 h, read-out: IC50
[11] = Homo sapiens, MDA-MB-231, 72 h, read-out: IC50
[12] = Homo sapiens, SK-BR-3, 72 h, read-out: IC50
[13] = Homo sapiens, A-431, 72 h, read-out: IC50
[14] = Homo sapiens, DU-145, 72 h, read-out: IC50
[15] = Homo sapiens, PC-3, 72 h, read-out: IC50
[16] = Homo sapiens, HeLa, 72 h, read-out: IC50
[17] = Homo sapiens, NCI-N87, 72 h, read-out: IC50
[18] = Homo sapiens, HCT-116, 72 h, read-out: IC50
[19] = Homo sapiens, HL-60, 72 h, read-out: IC50
[20] = Homo sapiens, K562, 72 h, read-out: IC50

Row | SMILES | IC50 (U-937; [8]) [nM] | IC50 (MCF7; [10]) [nM] | IC50 (MDA-MB-231; [11]) [nM] | IC50 (A549) [nM] | IC50 (A-431; [13]) [nM] | IC50 (DU-145; [14]) [nM] | IC50 (PC-3; [15]) [nM] | IC50 (HeLa; [16]) [nM] | IC50 (HCT-116; [18]) [nM] | IC50 (Aurora kinase A) [nM] | IC50 (HL-60; [19]) [nM] | IC50 (K562; [20]) [nM] | IC50 [1, 9] [nM] | IC50 [2, 12] [nM] | IC50 (NCI-N87; [17]) [nM] | IC50 [3] [nM] | also measured
1 | COC(=O)c1ccc(Nc2nc(Nc3cc(C)[nH]n3)cc(N3CCN(C)CC3)n2)cc1Cl | 55 | 813 | 124 | 1590 | 83.3 | 900 | 1380 | 322 | 1590 | 7.7 | 129 | 137 | 42.9 | 2160 | 3620 | 508 | 
2 | Cc1cc(Nc2cc(N3CCN(C)CC3)nc(Nc3ccc(N4CCOCC4)cc3)n2)n[nH]1 |  |  |  |  |  |  |  |  |  | 112 |  |  |  |  |  |  | 
3 | Cc1cc(Nc2cc(N3CCN(C)CC3)nc(Nc3ccc(C#N)cc3)n2)n[nH]1 | 9.03 | 372 | 75.7 | 785 | 140 | 1270 | 977 | 331 | 650 | 8 | 21.8 | 58.1 | 13.6 | 883 | 5780 | 435 | 
4 | Cc1cc(Nc2cc(N3CCN(C)CC3)nc(Nc3ccc(Cl)cc3)n2)n[nH]1 | 55.4 | 840 | 138 | 631 | 162 | 2240 | 1480 | 619 | 1370 | 13 | 83.4 | 192 | 53.1 | 1610 | 7470 | 455 | 
5 | Cc1cc(Nc2cc(N3CCN(C)CC3)nc(Nc3ccccc3Cl)n2)n[nH]1 |  |  |  |  |  |  |  |  |  | 147 |  |  |  |  |  |  | 
6 | Cc1cc(Nc2cc(N3CCN(C)CC3)nc(Nc3ccc([N+](=O)[O-])cc3)n2)n[nH]1 | 43.3 | 424 | 84.4 | 723 | 150 | 1200 | 1090 | 331 | 1630 | 12 | 69.8 | 137 | 18.1 | 437 | 3880 | 442 | 
7 | Cc1cc(Nc2cc(N3CCN(C)CC3)nc(Sc3ccc(NC(=O)C4CC4)cc3)n2)n[nH]1 [TOZASERTIB] | 36 | 1300 | 127 | 3050 | 240 | 400 | 5810 | 2930 | 4320 |  | 38.2 | 79.1 | 21.2 | 9990 | 11600 | 4130 | 
8 | COc1ccccc1Nc1nc(Nc2cc(C)[nH]n2)cc(N2CCN(C)CC2)n1 |  |  |  |  |  |  |  |  |  | 200 |  |  |  |  |  |  | Activity [4]: 38.7%; Activity [5]: 8.2%; Activity [6]: 49%; Activity [7]: 3.7%
9 | Cc1cc(Nc2cc(N3CCOCC3)nc(Nc3ccc([N+](=O)[O-])cc3)n2)n[nH]1 | 210 | 1070 | 204 | 1040 | 331 | 631 | 967 | 607 | 2600 | 11 | 1600 | 355 | 60.7 | 960 | 17500 | 580 | 
10 | Cc1cc(Nc2cc(N3CCN(C)CC3)nc(Nc3cccc([N+](=O)[O-])c3)n2)n[nH]1 | 25.2 | 642 | 114 | 926 | 166 | 1340 | 962 | 1110 | 1820 | 16 | 90.9 | 138 | 26 | 2180 | 4320 | 457 | 
11 | Cc1cc(Nc2cc(N3CCN(C)CC3)nc(Nc3ccc(N4CC(=O)N(C5CC5)CC4=O)cc3)n2)n[nH]1 |  |  |  |  |  |  |  |  |  | 549 |  |  |  |  |  |  | 
12 | COC(=O)c1ccc(Nc2nc(Nc3cc(C)[nH]n3)cc(N3CCN(S(=O)(=O)c4ccc(C)cc4)CC3)n2)cc1 |  |  |  |  |  |  |  |  |  | 573 |  |  |  |  |  |  | 
13 | Cc1cc(Nc2cc(N3CCN(C)CC3)nc(Nc3ccc(S(N)(=O)=O)cc3)n2)n[nH]1 | 100 | 2680 | 1210 | 16700 | 2760 | 926 | 4380 | 3060 | 12200 | 5 | 213 | 1430 | 648 | 15900 | 24000 | 8760 | 

The next lines start with results.

Row | IC50 (U-937; [8]) [nM] | IC50 (MCF7; [10]) [nM] | IC50 (MDA-MB-231; [11]) [nM] | IC50 (A549) [nM] | IC50 (A-431; [13]) [nM] | IC50 (DU-145; [14]) [nM] | IC50 (PC-3; [15]) [nM] | IC50 (HeLa; [16]) [nM] | IC50 (HCT-116; [18]) [nM] | IC50 (Aurora kinase A) [nM] | IC50 (HL-60; [19]) [nM] | IC50 (K562; [20]) [nM] | SMILES | IC50 [1, 9] [nM] | IC50 [2, 12] [nM] | IC50 (NCI-N87; [17]) [nM] | IC50 [3] [nM] | also measured
14 | 233 | 1990 | 716 | 1730 | 1610 | 791 | 2060 | 1700 | 1240 | 34 | 604 | 556 | COC(=O)c1ccc(Nc2nc(Nc3cc(C)[nH]n3)cc(N3CCN(S(C)(=O)=O)CC3)n2)cc1 | 215 | 5850 | 10900 | 1220 | 
15 |  |  |  |  |  |  |  |  |  | 97 |  |  | COC(=O)c1ccc(CNc2nc(Nc3cc(C)[nH]n3)cc(N3CCOCC3)n2)cc1 |  |  |  |  | 
16 | 103 | 1320 | 162 | 1220 | 440 | 499 | 1360 | 985 | 1660 | 22 | 181 | 307 | Cc1cc(Nc2cc(N3CCN(C)CC3)nc(Nc3ccc(C(=O)OC(C)C)cc3)n2)n[nH]1 | 94.1 | 4020 | 6320 | 1320 | Activity [4]: 1.9%; Activity [5]: 1.7%; Activity [6]: 89%; Activity [7]: 7%
17 |  |  |  |  |  |  |  |  |  | 127 |  |  | COC(=O)c1ccc(CNc2nc(Nc3cc(C)[nH]n3)cc(N3CCN(C)CC3)n2)cc1 |  |  |  |  | Activity [4]: 55.4%; Activity [5]: 6.2%; Activity [6]: 35.3%; Activity [7]: 3%
18 |  |  |  |  |  |  |  |  |  | 228 |  |  | COC(=O)c1ccc(Nc2nc(NCCN3CCCCC3)cc(Nc3cc(C)[nH]n3)n2)cc1 |  |  |  |  | 
19 |  |  |  |  |  |  |  |  |  | 72 |  |  | COC(=O)c1ccc(Nc2nc(NCCN3CCOCC3)cc(Nc3cc(C)[nH]n3)n2)cc1 |  |  |  |  | 
20 |  |  |  | 19700 |  |  |  |  |  | 32 |  |  | Cc1cc(Nc2cc(N3CCN(C)CC3)nc(Nc3ccc(C(=O)O)cc3)n2)n[nH]1 |  |  |  | 39300 | IC50 (U-937; u-937): Not Active; IC50 ([1]; molt-4): Not Active; IC50 (MCF7; mcf7): Not Active; IC50 (MDA-MB-231; mda-mb-231): Not Active; IC50 ([2]; sk-br-3): Not Active; IC50 (A-431; a-431): Not Active; IC50 (DU-145; du-145): Not Active; IC50 (PC-3; pc-3): Not Active; IC50 (HeLa; hela): Not Active; IC50 (NCI-N87; nci-n87): Not Active; IC50 (HCT-116; hct-116): Not Active; IC50 (HL-60; hl-60): Not Active; IC50 (K562; k562): Not Active
21 |  |  |  |  |  |  |  |  |  | 135 |  |  | COC(=O)c1ccc(Nc2nc(Nc3cc(C)[nH]n3)cc(N3CCNCC3)n2)cc1 |  |  |  |  | 
22 |  |  |  |  |  |  |  |  |  | 101 |  |  | CNC(=O)c1ccc(Nc2nc(Nc3cc(C)[nH]n3)cc(N3CCN(C)CC3)n2)cc1 |  |  |  |  | 
23 |  |  |  |  |  |  |  |  |  | 113 |  |  | COC(=O)c1ccc(Nc2nc(Nc3cc(C)[nH]n3)cc(N3C[C@@H](C)O[C@@H](C)C3)n2)cc1 |  |  |  |  | 
24 |  |  |  |  |  |  |  |  |  | 118 |  |  | CC(=O)Nc1ccc(Nc2nc(Nc3cc(C)[nH]n3)cc(N3CCN(C)CC3)n2)cc1 |  |  |  |  | 

Reference: ChEMBL document CHEMBL3232730, “Design, synthesis and bioevaluation of N-trisubstituted pyrimidine derivatives as potent aurora A kinase inhibitors” (Eur J Med Chem, 2014)
